From paper PMC8217813, “Bridging Computational Vaccinology and Vaccine Development Through Systematic Identification, Characterization, and Downselection of Conserved and Variable Circumsporozoite Protein CD4 T Cell Epitopes From Diverse Plasmodium falciparum Strains” (Frontiers in Immunology, 2021)
Peptide text beside a SMILES is read from it.

Assays:
[1] = tested on: CD4 T cells co-cultured with autologous DCs from PBMCs; assay type: cell-based, human; settings: positive = Stimulation Index ≥1.5-fold above baseline, 5 µg/mL peptide
HLA-DRB1*1501 = molecular target: T1, HLA-DRB1*1501 (Homo sapiens, UniProt P01903+P01911); experiment: In vitro class II HLA binding competition assay
T1 construct: purchased
Method: (§1) EpiVax conducted in vitro quantification of peptide-HLA binding affinity utilizing a competition assay format per the methodology described in ([35]). Briefly, a fluorescent-labeled, high-binding reference peptide and titrating concentrations of test peptide were incubated in a 96-well plate format with limiting concentrations of class II HLA monomers in aqueous buffer for 24-hours. Post incubation, the mixtures were moved to a 96-well plate coated with anti-HLA-DR antibody to capture HLA-peptide complexes. Time-resolved fluorescence measurement of the bound labeled reference peptide complex present in each mixture were detected with a europium-linked probe via fluorescent spectrophotometry using a SpectraMax M5 system. HLA binding affinity of each test peptide was expressed as the percent inhibition of reference peptide binding. Percent inhibition values (across the test peptide titration range) were used to calculate the half maximal inhibitory concentration (IC50) of each test peptide. For these studies, test peptides were assessed using a range of final concentrations from 100,000 nM to 100 nM and all peptides were reconstituted in dimethyl sulfoxide (DMSO).

HLA-DRB1*0701 = HLA-DRB1*0701 (Homo sapiens, UniProt P01903+P01911, A100R/A102G/A103Q/D57E/D86V/E43K/F76Y/K127E/L162R/M171V/P40G/Q125H/Q99D/R33Q/R42Y/R54Q/S133A/S66F/T210M/V115G/Y107V/Y59L/Y89S); experiment: In vitro class II HLA binding competition assay
Method: as §1

HLA-DRB1*0401 = molecular target: T2, HLA-DRB1*0401 (Homo sapiens, UniProt P01903+P01911, A100K/A169T/F76Y/I96L/K127E/L162R/M171V/N62H/P40V/Q125Y/R42H/S133A/S149N/S66Y/V115G/V209L/W38E); experiment: In vitro class II HLA binding competition assay
T2 construct: purchased
Method: as §1

HLA-DRB1*0801 = HLA-DRB1*0801 (Homo sapiens, UniProt P01903+P01911, A100R/A103L/A169T/D86S/F76Y/H45Y/I96F/K41T/L162R/M171V/P40S/Q125H/Q178H/Q39Y/Q99D/R218S/R42G/S66Y/V115G/W38E); experiment: In vitro class II HLA binding competition assay; settings: competition with fluorescent-labeled reference peptide, class II HLA monomers, 24-hours, test peptide 100,000 nM to 100 nM, time-resolved fluorescence
Method: as §1

HLA-DRB1*0101 = molecular target: T3, HLA-DRB1*0101 (Homo sapiens, UniProt P01903+P01911, A100R/D57E/F55L/F60I/F76Y/I96L/L162R/M171V/P40L/Q125E/R42F/V115G/Y59C); experiment: In vitro class II HLA binding competition assay; settings: competition with fluorescent-labeled reference peptide, class II HLA monomers, 24-hours, test peptide 100,000 nM to 100 nM, time-resolved fluorescence
T3 construct: purchased
Method: as §1

HLA-DRB1*1301 = HLA-DRB1*1301 (Homo sapiens, UniProt P01903+P01911, A100E/A169T/K41T/L162R/M171V/P40S/Q125H/Q178H/Q39Y/Q99D/R42S/S66N/T262R/W38E/Y61H); experiment: In vitro class II HLA binding competition assay; settings: competition with fluorescent-labeled reference peptide, class II HLA monomers, 24-hours, test peptide 100,000 nM to 100 nM, time-resolved fluorescence
Method: as §1

HLA-DRB1*1101 = molecular target: T4, HLA-DRB1*1101 (Homo sapiens, UniProt P01903+P01911, A100R/A169T/A87E/I96F/K41T/L162R/M171V/P40S/Q125H/Q178H/Q39Y/Q99D/R42S/S66Y/T262R/V115G/W38E); experiment: In vitro class II HLA binding competition assay; settings: competition with fluorescent-labeled reference peptide, class II HLA monomers, 24-hours, test peptide 100,000 nM to 100 nM, time-resolved fluorescence
T4 construct: purchased
Method: as §1

HLA A*2402 = molecular target: T5, HLA A*2402 (Homo sapiens, UniProt P04439, D101N/D140Y/D185E/E176V/E190D/F33S/G103R/G107R/I119L/I121M/I306V/K335N/L105A/L180Q/L300P/N151K/N90K/Q86E/Q94H/R106L/R138H/R89G/T104I/T345S/V100E/W191G/Y123F); experiment: In vitro class I HLA binding competition assay (fluorescence polarization); settings: allele A2402; cell-free competition with fluorescently labeled control peptide, fluorescence polarization at 72 hours
T5 construct: Pure Protein, LLC (ran the assay)
Method: The cell-free class I HLA binding assay in use at Pure Protein, LLC allows for in vitro quantification of peptide-HLA binding affinity in a competition format. In this assay, a fluorescently labeled, high binding, control peptide is loaded onto 384-well ½-area plates along with unlabeled experimental peptides. To remove endogenous peptides and render the HLA A and B molecules receptive to binding, HLA is heated at 53°C for 15 minutes and immediately added to the assay. The mixture is then allowed to stand for three days. […] Binding of experimental peptides is expressed as the percent inhibition of the labeled control peptide (experimental fluorescence / control fluorescence, multiplied by 100). The percent inhibition values for each experimental peptide (across a range of molar concentrations) are used to calculate the concentration which inhibits 50% of the labeled control peptide’s specific binding. This value is referred to as the peptide’s IC50.

HLA B*4402 = HLA B*4402 (Homo sapiens, UniProt P01889, A223V/A65T/A93T/A95T/D201E/D98Y/E176V/E187L/E204Q/E69K/G107R/H137Y/K202T/L105A/L119I/N104T/N87E/Q56L/Q94N/R106L/R155S/R180D/S101N/S121R/S35A/S48T/T118I/V36M/W191S/Y140D/Y91S); experiment: as above; settings: allele B4402; cell-free competition with fluorescently labeled control peptide, fluorescence polarization at 72 hours
Method: The cell-free class I HLA binding assay in use at Pure Protein, LLC allows for in vitro quantification of peptide-HLA binding affinity in a competition format. In this assay, a fluorescently labeled, high binding, control peptide is loaded onto 384-well ½-area plates along with unlabeled experimental peptides. To remove endogenous peptides and render the HLA A and B molecules receptive to binding, HLA is heated at 53°C for 15 minutes and immediately added to the assay. The mixture is then allowed to stand for three days. Once the mixture has reached steady equilibrium (at 72 hours), displacement of the high binding control peptide is measured through Fluorescence Polarization. Binding of experimental peptides is expressed as the percent inhibition of the labeled control peptide (experimental fluorescence / control fluorescence, multiplied by 100). The percent inhibition values for each experimental peptide (across a range of molar concentrations) are used to calculate the concentration which inhibits 50% of the labeled control peptide’s specific binding. This value is referred to as the peptide’s IC50.

CC[C@H](C)[C@H](NC(C)=O)C(=O)N[C@H](C(=O)N[C@@H](CCC(=O)O)C(=O)N[C@@H](Cc1ccc(O)cc1)C(=O)N[C@@H](CC(C)C)C(=O)N[C@@H](CCCCN)C(=O)N[C@@H](CCCCN)C(=O)N[C@H](C(=O)N[C@@H](CCC(N)=O)C(=O)N[C@@H](CC(N)=O)C(=O)N[C@@H](CO)C(=O)N[C@@H](CC(C)C)C(=O)N[C@@H](CO)C(=O)N[C@H](C(=O)N[C@@H](CCC(=O)O)C(=O)N[C@@H](Cc1c[nH]c2ccccc12)C(=O)N[C@@H](CO)C(=O)N1CCC[C@H]1C(=O)N[C@@H](CS)C(=O)N[C@@H](CO)C(N)=O)[C@@H](C)O)[C@@H](C)CC)[C@@H](C)O [ICS2] (Ac-ITEYLKKIQNSLSTEWSPCS-NH2)
Percentage of donors demonstrating IFN-γ responses, DR1 ([1]; DR1 donors N=5, ICCS after 14-day co-culture): 40% | Percentage of donors demonstrating IL-2 responses, DR1 ([1]; DR1 donors N=5, ICCS): 40% | Percentage of donors demonstrating IL-4 responses, DR1 ([1]; DR1 donors N=5, ICCS): 0% | Percentage of donors demonstrating IL-10 responses, DR1 ([1]; DR1 donors N=5, ICCS): 0% | Percentage of donors demonstrating TNF-α responses, DR1 ([1]; DR1 donors N=5, ICCS): 40% | Percentage of donors demonstrating IFN-γ responses, DR3 ([1]; DR3 donors N=6, ICCS after 14-day co-culture): 33% | Percentage of donors demonstrating IL-2 responses, DR3 ([1]; DR3 donors N=6, ICCS): 33% | Percentage of donors demonstrating IL-4 responses, DR3 ([1]; DR3 donors N=6, ICCS): 33% | Percentage of donors demonstrating IL-10 responses, DR3 ([1]; DR3 donors N=6, ICCS): 33% | Percentage of donors demonstrating TNF-α responses, DR3 ([1]; DR3 donors N=6, ICCS): 17% | Percentage of donors demonstrating IFN-γ responses, DR4 ([1]; DR4 donors N=10, ICCS after 14-day co-culture): 40% | Percentage of donors demonstrating IL-2 responses, DR4 ([1]; DR4 donors N=10, ICCS): 20% | Percentage of donors demonstrating IL-4 responses, DR4 ([1]; DR4 donors N=10, ICCS): 10% | Percentage of donors demonstrating IL-10 responses, DR4 ([1]; DR4 donors N=10, ICCS): 0% | Percentage of donors demonstrating TNF-α responses, DR4 ([1]; DR4 donors N=10, ICCS): 50% | Percentage of donors demonstrating IFN-γ responses, DR7 ([1]; DR7 donors N=4, ICCS after 14-day co-culture): 50% | Percentage of donors demonstrating IL-2 responses, DR7 ([1]; DR7 donors N=4, ICCS): 0% | Percentage of donors demonstrating IL-4 responses, DR7 ([1]; DR7 donors N=4, ICCS): 0% | Percentage of donors demonstrating IL-10 responses, DR7 ([1]; DR7 donors N=4, ICCS): 0% | Percentage of donors demonstrating TNF-α responses, DR7 ([1]; DR7 donors N=4, ICCS): 25% | Percentage of donors demonstrating IFN-γ responses, DR8 ([1]; DR8 donors N=4, ICCS after 14-day co-culture): 50% | Percentage of donors demonstrating IL-2 responses, DR8 ([1]; DR8 donors N=4, ICCS): 25% | Percentage of donors demonstrating IL-4 responses, DR8 ([1]; DR8 donors N=4, ICCS): 0% | Percentage of donors demonstrating IL-10 responses, DR8 ([1]; DR8 donors N=4, ICCS): 25% | Percentage of donors demonstrating TNF-α responses, DR8 ([1]; DR8 donors N=4, ICCS): 50% | Percentage of donors demonstrating IFN-γ responses, DR9 ([1]; DR9 donors N=4, ICCS after 14-day co-culture): 0% | Percentage of donors demonstrating IL-2 responses, DR9 ([1]; DR9 donors N=4, ICCS): 25% | Percentage of donors demonstrating IL-4 responses, DR9 ([1]; DR9 donors N=4, ICCS): 0% | Percentage of donors demonstrating IL-10 responses, DR9 ([1]; DR9 donors N=4, ICCS): 0% | Percentage of donors demonstrating TNF-α responses, DR9 ([1]; DR9 donors N=4, ICCS): 25% | Percentage of donors demonstrating IFN-γ responses, DR11 ([1]; DR11 donors N=4, ICCS after 14-day co-culture): 25% | Percentage of donors demonstrating IL-2 responses, DR11 ([1]; DR11 donors N=4, ICCS): 25% | Percentage of donors demonstrating IL-4 responses, DR11 ([1]; DR11 donors N=4, ICCS): 0% | Percentage of donors demonstrating IL-10 responses, DR11 ([1]; DR11 donors N=4, ICCS): 0% | Percentage of donors demonstrating TNF-α responses, DR11 ([1]; DR11 donors N=4, ICCS): 50% | Percentage of donors demonstrating IFN-γ responses, DR13 ([1]; DR13 donors N=7, ICCS after 14-day co-culture): 57% | Percentage of donors demonstrating IL-2 responses, DR13 ([1]; DR13 donors N=7, ICCS): 29% | Percentage of donors demonstrating IL-4 responses, DR13 ([1]; DR13 donors N=7, ICCS): 14% | Percentage of donors demonstrating IL-10 responses, DR13 ([1]; DR13 donors N=7, ICCS): 29% | Percentage of donors demonstrating TNF-α responses, DR13 ([1]; DR13 donors N=7, ICCS): 71% | Percentage of donors demonstrating IFN-γ responses, DR15 ([1]; DR15 donors N=7, ICCS after 14-day co-culture): 43% | Percentage of donors demonstrating IL-2 responses, DR15 ([1]; DR15 donors N=7, ICCS): 14% | Percentage of donors demonstrating IL-4 responses, DR15 ([1]; DR15 donors N=7, ICCS): 0% | Percentage of donors demonstrating IL-10 responses, DR15 ([1]; DR15 donors N=7, ICCS): 14% | Percentage of donors demonstrating TNF-α responses, DR15 ([1]; DR15 donors N=7, ICCS): 29% | IC50 (HLA-DRB1*1501): 8.47 µM | IC50 (HLA-DRB1*0701): 20 µM | IC50 (HLA-DRB1*0401): 0.377 µM | IC50 (HLA-DRB1*0801): 4.76 µM | IC50 (HLA-DRB1*0101): 83.9 µM | IC50 (HLA-DRB1*1301): 73.2 µM | IC50 (HLA-DRB1*1101): 43.7 µM

CC[C@H](C)[C@H](N)C(=O)N[C@@H](CCC(N)=O)C(=O)N[C@@H](CC(N)=O)C(=O)N[C@@H](CO)C(=O)N[C@@H](CC(C)C)C(=O)N[C@@H](CO)C(=O)N[C@H](C(=O)N[C@@H](CCC(=O)O)C(=O)N[C@@H](Cc1c[nH]c2ccccc12)C(=O)O)[C@@H](C)O [Cluster 323_3D7] (H-IQNSLSTEW-OH)
IC50 (HLA A*2402): 21.3 µM | IC50 (HLA B*4402): 136 µM
